Experimental data as given in patent EP3335720A1, “C-DI-GMP BINDING PEPTIDES” (Universität Basel, priority 2016, dated 2018).

The substances below were run against c-di-GMP (assay: Binding affinity of peptides to c-di-GMP by isothermal titration calorimetry (ITC)). Conditions: Table 3, peptides with amino acid substitution, 15°C, pH 8.0, read-out: Dissociation constant.
Description: Binding affinities of peptides to c-di-GMP were measured using isothermal titration calorimetry (ITC) on a VP-ITC MicroCalorimeter (MicroCal, Northampton, MA, USA). Peptides, c-di-GMP and buffer (50 mM Tris-HCl, pH 8.0, 100 mM NaCl) were degassed for 15 min prior to filling into sample cell and syringe. All experiments were carried out at a temperature of 15°C. The data were evaluated using ITC Data Analysis in ORIGIN provided by the manufacturer.

Substance	Kd [nM]
Ac-DRRRANSADYKGPRRRKAD-NH2 [compound 17]	140

Same assay, conditions: Table 4, deletion of single amino acid, 15°C, pH 8.0, read-out: Dissociation constant

Substance	Kd [nM]
Ac-DRRFNSADYKGPRRRKAD-NH2 [compound 32]	1040
Ac-DRRRFNADYKGPRRRKAD-NH2 [compound 35]	440
Ac-DRRRFNSADYKPRRRKAD-NH2 [compound 38]	1950
Ac-DRRRFNSAYKGPRRRKAD-NH2 [compound 37]	440

Same assay, conditions: compared to the core sequence / peptide of SEQ ID NO: 12

Substance	binding affinity to c-di-GMP, in words
Ac-ARRRFNSADYKGPRRRKAD-NH2 [SEQ ID NO: 13, AC-ARRRFNSADYKGPRRRKAD-NH2]	significantly reduced binding affinities
Ac-DARRFNSADYKGPRRRKAD-NH2 [SEQ ID NO: 14, AC-DARRFNSADYKGPRRRKAD-NH2]	significantly reduced binding affinities
Ac-DRARFNSADYKGPRRRKAD-NH2 [SEQ ID NO: 15, AC-DRARFNSADYKGPRRRKAD-NH2]	significantly reduced binding affinities
Ac-DRRAFNSADYKGPRRRKAD-NH2 [SEQ ID NO: 16, AC-DRRAFNSADYKGPRRRKAD-NH2]	sufficiently high to bind c-di-GMP
Ac-DRRFNSADYKGPRRRKAD-NH2 [SEQ ID NO: 32, AC-DRRFNSADYKGPRRRKAD-NH2]	Affinity decreased further
Ac-DRRRFASADYKGPRRRKAD-NH2 [SEQ ID NO: 18, AC-DRRRFASADYKGPRRRKAD-NH2]	does not significantly reduce binding affinity
Ac-DRRRFNAADYKGPRRRKAD-NH2 [SEQ ID NO: 19, AC-DRRRFNAADYKGPRRRKAD-NH2]	does not significantly reduce binding affinity
Ac-DRRRFNSAAYKGPRRRKAD-NH2 [SEQ ID NO: 21, AC-DRRRFNSAAYKGPRRRKAD-NH2]	does not significantly reduce binding affinity
Ac-DRRRFNSADAKGPRRRKAD-NH2 [SEQ ID NO: 22, AC-DRRRFNSADAKGPRRRKAD-NH2]	significantly reduced binding affinities
Ac-DRRRFNSADYAGPRRRKAD-NH2 [SEQ ID NO: 23, AC-DRRRFNSADYAGPRRRKAD-NH2]	does not significantly reduce binding affinity
Ac-DRRRFNSADYKAPRRRKAD-NH2 [SEQ ID NO: 24, AC-DRRRFNSADYKAPRRRKAD-NH2]	significantly reduced binding affinities
Ac-DRRRFNSADYKGARRRKAD-NH2 [SEQ ID NO: 25, AC-DRRRFNSADYKGARRRKAD-NH2]	sufficiently high to bind c-di-GMP
Ac-DRRRFNSADYKGPARRKAD-NH2 [SEQ ID NO: 26, AC-DRRRFNSADYKGPARRKAD-NH2]	significantly reduced binding affinities
Ac-DRRRFNSADYKGPRARKAD-NH2 [SEQ ID NO: 27, AC-DRRRFNSADYKGPRARKAD-NH2]	significantly reduced binding affinities
Ac-DRRRFNSADYKGPRRRAAD-NH2 [SEQ ID NO: 29, AC-DRRRFNSADYKGPRRRAAD-NH2]	does not significantly reduce binding affinity
Ac-DRRRFNSADYKGPRRRKAA-NH2 [SEQ ID NO: 31, AC-DRRRFNSADYKGPRRRKAA-NH2]	significantly reduced binding affinities
Ac-DRRRFNSADYKGPRRRKLD-NH2 [SEQ ID NO: 30, AC-DRRRFNSADYKGPRRRKLD-NH2]	does not significantly reduce binding affinity

Same assay, conditions: single amino acid deletion

Substance	decrease of c-di-GMP binding affinity compared to the peptide of SEQ ID NO: 12
Ac-DRRRFNADYKGPRRRKAD-NH2 [SEQ ID NO: 35, AC-DRRRFNADYKGPRRRKAD-NH2]	2 to 3 fold
Ac-DRRRFNSADYKPRRRKAD-NH2 [SEQ ID NO: 38, AC-DRRRFNSADYKPRRRKAD-NH2]	about 12 fold
Ac-DRRRFNSAYKGPRRRKAD-NH2 [SEQ ID NO: 37, AC-DRRRFNSAYKGPRRRKAD-NH2]	2 to 3 fold
Ac-DRRRFNSDYKGPRRRKAD-NH2 [SEQ ID NO: 36, AC-DRRRFNSDYKGPRRRKAD-NH2]	2 to 3 fold
